# Laboratory results taken from patent publication US8173157B2, “Pharmaceutical composition comprising phenylamidine derivative and method of using the pharmaceutical composition in combination with antifungal agent” (Toyama Chemical Co., Ltd., priority 2006, dated 2012).
# Numbered stars: 1 amine (or outer) side, 2 acyl side, 3 side chain; on linkers, the order of the positions; unused ones are H or OH. Bridge positions count the residues as written; N and C are the ends. Square brackets hold non-standard residues; d marks the D form. Peptide text beside a SMILES is read from it. * marks the point of attachment. hTyr(3S-OH,4S-OH,3'-OSO3H) = N[C@H](C(=O)O)[C@H](O)[C@@H](O)c1ccc(O)c(OS(=O)(=O)O)c1; Orn(4R-OH,5R-OH) = O=C([C@H](C[C@@H](O)[C@@H](O)N[*:3])N[*:1])[*:2]; Pro(3S-OH,4S-Me) = C[C@H]1CN[C@H](C(=O)O)[C@H]1O; X1 = CCCCCOc1ccc(-c2cc(-c3ccc(C(=O)*)cc3)no2)cc1; Gln(3R-OH) = NC(=O)C[C@@H](O)[C@H](N)C(=O)O; Hyp = O=C(O)[C@@H]1C[C@@H](O)CN1
# Tests used:
# [1] = system: Candida albicans TIMM1623; assay: In vivo test: murine systemic infection caused by Candida albicans; details: ICR mice, day 21 after infection, once daily, 7 times
# Experimental: In vivo activity was evaluated in murine systemic infection caused by Candida albicans.
# (§1) Mice (4-week old (at infection) male ICR mice, 5 mice per group) were intraperitoneally administered 200 mg/kg of cyclophosphamide 4 days before infection and 100 mg/kg on the following day after infection. Candida albicans TIMM1623, which were prepared from overnight culture on a Sabouraud Dextrose Agar plate at 35° C., were suspended in sterile physiological saline solution. After counting cell number of the suspension with a biological microscope, the suspension was diluted with sterile physiological saline solution to give the inoculum solution. Systemic infection was induced in mice by intravenous inoculation of 0.2 mL of the inoculum solution into the tail vein (2.6×10^4 CFU/mouse).
# (§2) The test compound was dissolved in a small amount of 0.1 mol/L hydrochloric acid, and the solution was diluted with sterilized water to prepare predetermined concentrations.
# Fluconazole (a commercial name: FLANOS intravenous drip solution 100 mg, made by Toyama Chemical Co., Ltd.) was diluted with sterilized water to prepare fluconazole solutions of predetermined concentrations.
# Micafungin sodium (a commercial name: Funguard 50 mg for infusion, made by Astellas Pharma Inc.) was dissolved in sterile physiological saline solution to prepare micafungin solutions of predetermined concentrations.
# Amphotericin B for injection (a commercial name: FUNGIZONE, made by Bristol pharmaceutical Ltd.) was dissolved in 5% glucose to prepare an amphotericin B solution of a predetermined concentration.
# The test compound (0.25 and 0.5 mg/kg) and fluconazole (0.25 and 0.5 mg/kg) were orally administered. Micafungin (0.125 and 0.25 mg/kg) and amphotericin B (0.1 mg/kg) were subcutaneously administered. These administrations were conducted once 2 hours after the infection and then once daily for the following 6 days, totaling 7 times.
# On one hand each of the agents was administered singly, on the other hand each of the agents was administered immediately after the test compound was administered.
# The efficacy was evaluated on the basis of the survival rate on day 21 after infection.
# [2] = system: Cryptococcus neoformans ATCC90112; assay: In vivo test: murine systematic infection caused by Cryptococcus neoformans; details: ICR mice, day 21 after infection, once daily, 7 times
# Experimental: In vivo activity was evaluated in murine systematic infection caused by Cryptococcus neoformans.
# as §1, with “Cryptococcus neoformans ATCC90112 cells,” for “Candida albicans TIMM1623,”, “Systematic” for “Systemic”, “injection” for “inoculation”, “(8.5×10^4” for “(2.6×10^4”
# The test compound was dissolved in a small amount of 0.1 mol/L hydrochloric acid, and the solution was diluted with sterilized water to prepare predetermined concentrations. […]
# (§3) On one hand each of the agents was administered singly, on the other hand each of the agents was administered immediately after the test compound was administered. The efficacy was evaluated on the basis of the survival rate on day 21 after infection.
# [3] = system: Aspergillus fumigatus IFM46895; assay: In vivo test: murine systemic infection caused by Aspergillus fumigatus; details: for Survival rate: ICR mice, day 21 after infection, once daily, 7 times
# Experimental: In vivo activity was evaluated in murine systemic infection caused by Aspergillus fumigatus.
# Mice (4-week old (at infection) male ICR mice, 5 mice per group) were intraperitoneally administered 200 mg/kg of cyclophosphamide 4 days before infection and 100 mg/kg on the following day after infection. Conidia suspension of Aspergillus fumigatus IFM46895 was diluted with sterile physiological saline solution containing 0.05% Tween 80 (manufactured by Difco Laboratories) in sterile physiological saline solution to give the inoculum solution. Systemic infection was induced in mice by intravenous inoculation of 0.2 mL of the inoculum solution into the tail vein (1.6×10^5 CFU/mouse).
# as §2
# Flucytosine (made by Sigma Company) was suspended in 0.5% methyl cellulose liquid to prepare predetermined concentrations for administration.
# Voriconazole (a commercial name: Vfend 200 mg for intravenous use, made by Pfizer Inc.) was diluted with sterilized water to prepare voriconazole solutions of predetermined concentrations for administration.
# The test compound (1 and 3 mg/kg), flucytosine (50 and 250 mg/kg) and voriconazole (5 and 10 mg/kg) were orally administered. The administrations were conducted once 2 hours after the infection and then once daily for the following 6 days, totaling 7 times.
# as §3
# [4] = Toxicity on consecutive oral administration to mice; format: in vivo; details: orally administered consecutively at 25 mg/kg for 2 weeks
# [5] = system: Aspergillus fumigatus IFM46895; details: general statement ("as usual"); cited from earlier work
structure (smiles),measurement,setting,value
"C[C@@H]1[C@H](O)[C@@H](C)/C=C/C=C/C=C/C=C/C=C/C=C/C=C/[C@H](O[C@@H]2O[C@H](C)[C@@H](O)[C@H](N)[C@@H]2O)C[C@@H]2O[C@](O)(C[C@@H](O)C[C@@H](O)[C@H](O)CC[C@@H](O)C[C@@H](O)CC(=O)O[C@H]1C)C[C@H](O)[C@H]2C(=O)O [AMPH-B, amphotericin B]",Survival rate,[1]; AMPH-B 0.1 mg/kg subcutaneously,20
"OC(Cn1cncn1)(Cn1cncn1)c1ccc(F)cc1F [FLCZ, fluconazole]",Survival rate,[1]; FLCZ 0.25 mg/kg orally,20
same,Survival rate,[1]; FLCZ 0.5 mg/kg orally,40
same,Survival rate,[2]; FLCZ 20 mg/kg orally,20
"CCCCCOc1ccc(-c2cc(-c3ccc(C(=O)N[C@H]4C[C@@H](O)[C@@H](O)NC(=O)[C@@H]5[C@@H](O)[C@@H](C)CN5C(=O)[C@H]([C@H](O)CC(N)=O)NC(=O)[C@H]([C@H](O)[C@@H](O)c5ccc(O)c(OS(=O)(=O)O)c5)NC(=O)[C@@H]5C[C@@H](O)CN5C(=O)[C@H]([C@@H](C)O)NC4=O)cc3)no2)cc1 [MCFG, micafungin] (X1-[Orn(4R-OH,5R-OH)]T[Hyp][hTyr(3S-OH,4S-OH,3'-OSO3H)][Gln(3R-OH)][Pro(3S-OH,4S-Me)]; lactam 1-C)",Survival rate,[1]; MCFG 0.125 mg/kg subcutaneously,0
same,Survival rate,[1]; MCFG 0.25 mg/kg subcutaneously,40
"C[C@@H](c1ncncc1F)[C@](O)(Cn1cncn1)c1ccc(F)cc1F [VCZ, voriconazole]",Survival rate,[3]; VCZ 10 mg/kg orally,0
"CCCCOC(=O)N=C(N)c1ccc(OCCCC2CCN(CCCOc3ccc(C(N)=NC(=O)OCCCC)cc3)CC2)cc1 [Test compound, 4-{3-[4-(3-{4-[amino(butoxycarbonylimino)methyl]phenoxy}propyl)-1-piperidinyl]propoxy}-N′-(butoxycarbonyl)benzamidine]",Survival rate,[1]; test compound 0.5 mg/kg orally,0
same,Toxicity,[4],did not show toxicity at all
same,Survival rate,[3]; test compound 1 mg/kg orally,0
same,Survival rate,[3]; test compound 3 mg/kg orally,20
same,Survival rate,[2]; test compound 1 mg/kg orally,0
"Nc1[nH]c(=O)ncc1F [Example 5-FC, flucytosine]",Survival rate,[3]; 5-FC 250 mg/kg orally,0
same,Therapeutic effect,"[3]; murine systemic infection, flucytosine 250 mg/kg administered singly",no therapeutic effect
same,Effect against Aspergillus fumigatus,[5],almost no effect
